Test results taken from patent US4468399A, “2-[2-(2-Aminoalkyl-4-thiazolylmethylthio)alkyl]-amino-5-substituted-4-pyr imidones” (Eli Lilly and Company, priority 1983, dated 1984).

Legend:
acid secretion = test: in vivo antisecretory assay, gastric fistula dogs, histamine-stimulated gastric secretion; settings: for antisecretory potency relative to cimetidine, iv route: iv infusion over 30 minute period, histamine iv infusion; for recovery of acid secretions from an effective dose: after 3-4 hours
Description: An in vivo assay for the antisecretory action of drugs on acid secretion utilizes gastric fistula dogs with a vagally innervated gastric fistula and vagally denervated Heidenthain pouch. A steady-state gastric secretion is produced by the iv infusion of histamine. The antisecretory drugs under test are given either intravenously by infusion over a 30 minute period or orally 75 min. prior to collection of gastric secretion from the fistula. In this assay, 2-[2-(2-dimethylaminomethyl-4-thiazolylmethylthio)ethyl]amino-5-(3-pyridyl)methyl-4-pyrimidone was 11X cimetidine by the iv route and 14X cimetidine orally. The 6-methyl-2-pyridyl analog was 14.4X cimetidine intravenously.

H2 receptor [1] = test: H2 receptor blocking activity, isolated bullfrog gastric mucosa, histamine-stimulated acid secretion; type: cell-based, bullfrog (Rana catesbeiana); settings: inhibition of acid secretion stimulated by 10^-5 M histamine; antagonist in serosal chamber; read-out: ED50 (the source's name)
Description: A second assay for H2 receptor blocking activity employs the isolated bullfrog gastric mucosa--see Warrick and Lin, Communications in Chem. Pathology and Pharmacology, 13, 149 (1976). The assay is carried out as follows: The gastric mucosa of the bullfrog (Rana catesbeiana) is separated from the musculature of the stomach and placed between a pair of Ussing chambers made of lucite. The chambers are filled with frog Ringer solution and acid secretion is stimulated by addition of histamine to the serosal side of the mucosa at a final concentration of 10^-5 M. Acid output is automatically titrated to pH 4.5. After steady response to 10^-5 M of histamine is established, the antagonist (a compound of this invention) is added to the serosal chamber and the maximal inhibition by each concentration of the H2 -antagonist is recorded. From the dose-response curve, the ED50 of the drug is calculated.
In Table 2, column 1 gives the substituent at 6 in the pyrimidone ring, column 2 the "B" group (see formula at the head of the Table), and column 3 the molar ED50.

H2 receptor [2] = target: T1, H2 receptor (Rattus norvegicus, UniProt P25102); test: H2 receptor blocking activity, histamine-induced relaxation of isolated rat uterine strips; type: cell-based, rat (female albino rats); settings: antagonist 10^-5 molar, 30 minutes, dissociation constant from dose ratio of histamine ED50; read-out: -logKb (converted)
T1 construct: uterine horns removed therefrom and suspended at ambient temperature in isolated organ baths; from tissue; host or cells: isolated uterine horn strips of estrone-treated female albino rats
Description: The following assay for H2 receptor blocking activity was employed. Female albino rats are treated with estrone 24 hours prior to the initiation of the experiment. The rats are sacrificed and the uterine horns removed therefrom and suspended at ambient temperature in isolated organ baths containing De Jalon's solution. After equilibration, the uterine strips are exposed to 50 millimole aqueous potassium chloride, which produces a sustained contraction. When the uterus is so contracted, histamine produces a dosedependent H2 receptor-mediated relaxation. A control dose-response curve to histamine is constructed on each tissue. Following thorough washout of the histamine after obtaining the control dose-response curve, each antagonist (a compound of this invention) is added for 30 minutes at a concentration of 10^-5 molar. The uterine strips are then contracted with aqueous potassium chloride in the presence of the antagonist and a second dose-response curve to histamine obtained. In the presence of a competitive antagonist, the dose-response curve to histamine is shifted in parallel to the right with no depression of the maximum relative to the control curve. The dose ratio (DR) is calculated for each concentration of antagonist by dividing the ED50 of histamine in the presence of the competitive antagonist by the control ED50 for histamine. The dissociation constant (KB) of the antagonist is calculated from the dose-ratios by the following equation: […]
Cimetidine is included as an internal standard.
In the table, column 1 gives the name of the compound under test and column 2, the -logKb value for that compound.

H2-receptor = settings: cited from earlier work; for H2-receptor antagonist activity in words: prior art

T1 sequence (P25102 whole entry): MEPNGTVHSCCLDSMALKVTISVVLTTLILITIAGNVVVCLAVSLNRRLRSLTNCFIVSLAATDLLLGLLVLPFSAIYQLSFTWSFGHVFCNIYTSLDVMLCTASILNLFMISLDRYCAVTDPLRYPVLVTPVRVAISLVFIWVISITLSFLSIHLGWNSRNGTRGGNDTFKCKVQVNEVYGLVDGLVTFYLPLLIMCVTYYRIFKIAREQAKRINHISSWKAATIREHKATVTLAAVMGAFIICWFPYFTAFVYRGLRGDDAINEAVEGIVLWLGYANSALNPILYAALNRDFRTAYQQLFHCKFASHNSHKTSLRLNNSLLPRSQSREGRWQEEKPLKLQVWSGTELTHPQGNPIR

| SMILES | IC50 (H2 receptor [1]) [nM] | Kd (H2 receptor [2]) [nM] | other results |
| --- | --- | --- | --- |
| Cc1cccc(Cc2c[nH]c(NCCSCc3csc(CN(C)C)n3)nc2=O)n1 [6-methyl-2-pyridyl analog] |  |  | antisecretory potency relative to cimetidine, iv route (acid secretion): 14.4 X cimetidine |
| CN(C)Cc1nc(CSCCNc2ncc(Cc3cccnc3)c(=O)[nH]2)cs1 [Example 1, 2-[2-(2-dimethylaminomethyl-4-thiazolylmethylthio)ethyl]amino-5-(3-pyridyl)methyl-4-pyrimidone] | 115 | 1.1 | recovery of acid secretions from an effective dose (acid secretion): about 25%; antisecretory potency relative to cimetidine, iv route (acid secretion): 11 X cimetidine; antisecretory potency relative to cimetidine, orally (acid secretion; orally 75 min. prior to collection of gastric secretion): 14 X cimetidine |
| CNC(=NCCSCc1nc[nH]c1C)NC#N [cimetidine, N-cyano-N'-methyl-N"-[2-([(5-methyl-1H-imidazol-4-yl)methyl]thio)ethyl]guanidine, reference compound] |  |  | recovery of acid secretions from an effective dose (acid secretion): ~50% |
| Cc1ccc(Cc2cnc(NCCSCc3csc(CN(C)C)n3)[nH]c2=O)cn1 [Example 3, 2-[2-(2-dimethylaminomethyl-4-thiazolylmethylthio)ethyl]amino-5-(6-methyl-3-pyridyl)methyl-4-pyrimidone] | 1350 | 11.2 |  |
| C#CCNC(=C[N+](=O)[O-])NCCSCc1ccc(CN(C)C)o1 [1-nitro-2-(2-propynylamino)-2-(2-[(5-dimethylaminomethyl-2-furyl)methylthio]ethylamino)ethylene] |  |  | activity relative to cimetidine in a standard H2-receptor assay (H2-receptor; U.S. Pat. No. 4,203,909): 7.45 times the activity of cimetidine |
| COc1ccc(Cc2cnc(NCCSCc3csc(CN(C)C)n3)[nH]c2=O)cn1 [Example 4, 2-[2-(2-dimethylaminomethyl-4-thiazolylmethylthio)ethyl]amino-5-(6-methoxy-3-pyridyl)methyl-4-pyrimidone] | 12600 | 60.3 |  |
| CNC(=S)NCCCCc1cnc[nH]1 [burimamide] |  |  | H2-receptor antagonist activity in words (H2-receptor): powerful H2 -receptor antagonist |
| CN(C)Cc1nc(CSCCNc2nc(=O)c(Cc3ccc4c(c3)OCO4)c[nH]2)cs1 [Example 2, 2-[2-(2-dimethylaminomethyl-4-thiazolylmethylthio)ethyl]amino-5-[5-(1,3-benzodioxoly)]methyl-4-pyrimidone] | 11100 | 4.37 |  |
| CNC(=NC#N)NCCSCc1csc(NC(=N)N)n1 [2-guanidino-4-[2-(2-cyano-3-methylguanidino)ethylthiomethyl]thiazole] |  |  | H2-receptor antagonist activity in words (H2-receptor): greatly increased activity over cimetidine |

Second part, led by results:

| IC50 (H2 receptor [1]) [nM] | Kd (H2 receptor [2]) [nM] | SMILES | other results |
| --- | --- | --- | --- |
| 252 |  | CN(C)Cc1nc(CSCCNc2ncc(Cc3ccc(O)nc3)c(=O)[nH]2)cs1 [Example 6, 2-[2-(2-dimethylaminomethyl-4-thiazolylmethylthio)ethyl]amino-5-(6-hydroxy-3-pyridyl)methyl-4-pyrimidone] |  |
| 3000 |  | COc1cc(Cc2cnc(NCCSCc3csc(CN(C)C)n3)[nH]c2=O)ccn1 [Example 7, 2-[2-(2-dimethylaminomethyl-4-thiazolylmethylthio)ethyl]amino-5-(2-methoxy-4-pyridyl)methyl-4-pyrimidone] |  |
| 2350 | 3.89 | Cc1cc(Cc2cnc(NCCSCc3csc(CN(C)C)n3)[nH]c2=O)cnc1C [Example 5, 2-[2-(2-dimethylaminomethyl-4-thiazolylmethylthio)ethyl]amino-5-(5,6-dimethyl-3-pyridyl)methyl-4-pyrimidone] |  |
| 603 |  | CN(C)Cc1nc(CSCCNc2ncc(Cc3ccnc(O)c3)c(=O)[nH]2)cs1 [Example 9, 2-[2-(2-dimethylaminomethyl-4-thiazolylmethylthio)ethyl]amino-5-(2-hydroxy-4-pyridyl)methyl-4-pyrimidone] |  |
| 163 | 17.4 | CN(C)Cc1nc(CSCCNc2ncc(Cc3ccccn3)c(=O)[nH]2)cs1 [Example 10, 2-[2-(2-dimethylaminomethyl-4-thiazolylmethylthio)ethyl]amino-5-(2-pyridyl)methyl-4-pyrimidone] |  |
| 2000 |  | Cc1nc(NCCSCc2csc(CN(C)C)n2)[nH]c(=O)c1Cc1cccnc1 [Example 8, 2-[2-(2-dimethylaminomethyl-4-thiazolylmethylthio)ethyl]amino-5-(3-pyridyl)methyl-6-methyl-4-pyrimidone] |  |
| 196 | 12.9 | CN(C)Cc1nc(CSCCNc2ncc(Cc3ccncc3)c(=O)[nH]2)cs1 [Example 11, 2-[2-(2-dimethylaminomethyl-4-thiazolylmethylthio)ethyl]amino-5-(4-pyridyl)methyl-4-pyrimidone] |  |
